From US20120058204A1, “USE OF OVER EXPRESSION OF CYSTATHIONINE GAMMA LYASE AS A PROGNOSTIC, DIAGNOSTIC AND THERAPEUTIC TARGET FOR CANCER” (NATIONAL CANCER CENTER RESEARCH INSTITUTE, priority 2010, published 2012)

Tests used:
Assay type in all cases: cell-based
OVISE cell line = assay: Drug and growth-inhibitor assay (Cell Titer-Glo cell viability), OVISE; details: for effect on cell growth: concentration 0.1 g/ml to […], alone
Procedure: (§1) Cysplatin (CDDP, Randa, molecular weight, 300.5 Da) was purchased from Nippon Kayaku (Tokyo, Japan). Propargylglycine (PPG, molecular weight, 113.11 Da), a specific inhibitor of CTH, was purchased from Sigma-Aldrich. OVISE, OVTOKO, and OVCAR-3 were seeded into opaque-walled 96-well plates in a concentration of 1×10^4 cells/well on the day before adding the drugs. CDDP solution of various concentrations (0, 0.02, 0.1, 0.5, 2.5, and 12.5 µg/ml) was then added to the wells in duplicate. In the following, PPG dissolved in water ([…]) was added. 96 hours after addition of the drugs, cell viability was quantified using the Cell Titer-Glo Luminescent Cell Viability Assay (Promega, Madison, Wis.). Luminescence activity was measured with a GloMAx96 Microplate Luminometer (Promega).
(§2) The protein expression of CTH was examined in 9 ovarian cancer cell lines by western blot analysis. Among all the ovarian cell lines, CTH expression was only observed in OVISE and OVTOKO (FIG. 5E). […] There was a positive correlation between protein expression of CTH and IC50 of CDDP in ovarian cancer cell lines (FIG. 5 F-H). The IC50s of propargylglycine, a specific inhibitor of CTH, were also analyzed in these cell lines. Propargylglycine at a concentration ranging from […] to 10 µg/ml had no effect on cell growth of these cell lines. Thus, combination of CDDP and propargylglycine (FIG. 5 I-K) was also examined.

OVTOKO cell line = assay: Drug and growth-inhibitor assay (Cell Titer-Glo cell viability), OVTOKO; details: for effect on cell growth: concentration 0.1 g/ml to […], alone
Procedure: as §1, §2

OVCAR3 cell line = assay: Drug and growth-inhibitor assay (Cell Titer-Glo cell viability), OVCAR3; details: concentration 0.1 g/ml to […], alone
Procedure: as §1
as §2, with “Thus, combination of CDDP and propargylglycine (FIG. 5 I-K) was also examined.” left out

[1] = […] propargylglycine in culture medium, versus medium without PPG

C#CCC(N)C(=O)O (centres unmarked) [Propargylglycine]
effect on cell growth (OVISE cell line): no effect
effect on cell growth (OVISE cell line; listed as PPG): did not affect cell growth
effect on cell growth (OVTOKO cell line): no effect
effect on cell growth (OVTOKO cell line; listed as PPG): did not affect cell growth
effect on cell growth (OVCAR3 cell line): no effect
effect on cell growth (OVCAR3 cell line; listed as PPG): did not affect cell growth

[NH2][Pt]([NH2])([Cl])[Cl] [CDDP, Cysplatin]
change of IC50 of CDDP in combination with propargylglycine (OVISE cell line; [1]): significantly decreased
change of IC50 of CDDP in combination with propargylglycine (OVTOKO cell line; [1]): significantly decreased
